Experimental findings from US20230279001A1, “IMIDAZO[1,2-A]PYRIDINE COMPOUNDS FOR THE TREATMENT OF AUTOIMMUNE DISEASE” (Hoffmann-La Roche Inc., priority 2020, published 2023) are described below.

One series addresses human TLR7 (Homo sapiens (Human), UniProt Q9NYK1). As to the kind of experiment: HEK293-Blue-hTLR-7 cells assay. The format is cell-based. The conditions noted are these: HEK293-Blue-hTLR7 cells, R848 stimulation, 20 hrs, SEAP reporter; read-out: HEK/hTLR7 IC50. The text has this: A stable HEK293-Blue-hTLR-7 cell line was purchased from InvivoGen (Cat. #: hkb-htlr7, San Diego, Calif., USA). These cells were originally designed for studying the stimulation of human TLR7 by monitoring the activation of NF-κB. A SEAP (secreted embryonic alkaline phosphatase) reporter gene was placed under the control of the IFN-β minimal promoter fused to five NF-κB and AP-1-binding sites. The SEAP was induced by activating NF-κB and AP-1 via stimulating HEK-Blue hTLR7 cells with TLR7 ligands. Therefore the reporter expression was declined by TLR7 antagonist under the stimulation of a ligand, such as R848 (Resiquimod), for incubation of 20 hrs. The cell culture supernatant SEAP reporter activity was determined using QUANTI-Blue™ kit (Cat. #: rep-qb1, Invivogen, San Diego, Ca, USA) at a wavelength of 640 nm, a detection medium that turns purple or blue in the presence of alkaline phosphatase.
HEK293-Blue-hTLR7 cells were incubated at a density of 250,000˜450,000 cells/mL in a volume of 170 μL in a 96-well plate in Dulbecco's Modified Eagle's medium (DMEM) containing 4.5 g/L glucose, 50 U/mL penicillin, […], […], 2 mM L-glutamine, 10% (v/v) heat-inactivated fetal bovine serum with addition of 20 μL test compound in a serial dilution in the presence of final DMSO at 1% and 10 μL of 20 uM R848 in above DMEM, perform incubation under 37° C. in a CO2 incubator for 20 hrs. Then 20 μL of the supernatant from each well was incubated with 180 μL Quanti-blue substrate solution at 37° C. for 2 hrs and the absorbance was read at 620-655 nm using a spectrophotometer. The signaling pathway that TLR7 activation leads to downstream NF-κB activation has been widely accepted, and therefore similar reporter assay was modified for evaluating TLR7 antagonist.

Series [1] in a line: Parallel Artificial Membrane Permeability Assay (PAMPA). The format is in vitro ADME. The settings on record: for Membrane Retention / Papp at 4 h: PAMPA, pH 7.40, 4 hours; for Papp at 4 h: pH 7.4, room temperature, read-out: PAMPA Pe; for PAMPA category: classified by Pe and membrane retention. As for the experimental part: PAMPA (Parallel Artificial Membrane Permeability Assay) is a first-line permeability screen for drug candidates. This assay mimics the transcellular absorption conditions using an artificial phospholipid membrane and generates a permeability value that can be used for compound ranking and optimization as well as input parameters for in silico models to predict intestinal absorption.
Permeation experiments are carried out in hydrophobic PVDF 96-well microtiter filter plates (MultiScreen Filter Plate, Millipore, #MAIPN4550). Each well is coated with PVDF membrane, which is prepared with 5 μL Dodecane (Sigma, D221104) that contains 1% lecithin (Sigma, P3556-1G).
The typical PAMPA experimental protocol is as follows: The donor plate is placed on a Teflon acceptor plate that has been pre-filled with […] of 100 mM PBS buffer (2.6 g KH2PO4 and 18.5 g K2HPO4·3H2O are dissolved in about 1000 mL of ultra-pure water and mixed thoroughly. The pH is adjusted to 7.40±0.05, using either 1 M sodium hydroxide or 1M hydrochloric acid) containing 5% DMSO. The filter on the bottom of each acceptor well is filled with 300 μL of 100 mM PBS buffer (2.6 g KH2PO4 and 18.5 g K2HPO4·3H2O are dissolved in about 1000 mL of ultra-pure water, mixed thoroughly. The pH was adjusted to 7.40±0.05, using either 1 M sodium hydroxide or 1M hydrochloric acid). The resulting sandwich is incubated at room temperature under constant shaking (300 rpm) for 4 hours. The sandwich is then disassembled. Before incubation, spike 20 μL dosing solution and mix with 250 μL PBS and 130 μL quench solution (acetonitrile) as TO sample. After incubation, collect 270 μL solutions from acceptor chamber, followed by the addition of 130 μL acetonitrile. Collect 20 μL solution from donor chamber and add 250 μL PBS and 130 μL acetonitrile. The concentration of compound in all samples are determined by LC-MS/MS and the equations for determining the permeability (Pe, 10^−6 cm/s) are as follows.
VD is the volume of the donor well; VR is the volume of the acceptor well; Area is the active surface area of membrane; Time is the incubation time (14,400 s in this assay); CR and CD are the concentrations of compound in acceptor and donor solutions, respectively, at the completion of the assay; C0 is the concentration of compound in donor solution before incubation.
The main readout of the PAMPA assay is the permeability value Pe expressed in 10^−6 cm/s. Secondary readouts determined are the amounts of compound in the donor and acceptor compartments as well as compound retention in the membrane. Depending on the permeation rate and the membrane retention, compounds are classified as “low” (Pe<0.2 and membrane retention<20%) or “medium & high” (Pe>=0.2; or Pe<0.2 and membrane retention>=20%). Each sample is measured in triplicate; the standard deviation is determined for the permeation constant Pe.

Each structure is given as a SMILES string.

human TLR7, sequence (Q9NYK1 27-1049): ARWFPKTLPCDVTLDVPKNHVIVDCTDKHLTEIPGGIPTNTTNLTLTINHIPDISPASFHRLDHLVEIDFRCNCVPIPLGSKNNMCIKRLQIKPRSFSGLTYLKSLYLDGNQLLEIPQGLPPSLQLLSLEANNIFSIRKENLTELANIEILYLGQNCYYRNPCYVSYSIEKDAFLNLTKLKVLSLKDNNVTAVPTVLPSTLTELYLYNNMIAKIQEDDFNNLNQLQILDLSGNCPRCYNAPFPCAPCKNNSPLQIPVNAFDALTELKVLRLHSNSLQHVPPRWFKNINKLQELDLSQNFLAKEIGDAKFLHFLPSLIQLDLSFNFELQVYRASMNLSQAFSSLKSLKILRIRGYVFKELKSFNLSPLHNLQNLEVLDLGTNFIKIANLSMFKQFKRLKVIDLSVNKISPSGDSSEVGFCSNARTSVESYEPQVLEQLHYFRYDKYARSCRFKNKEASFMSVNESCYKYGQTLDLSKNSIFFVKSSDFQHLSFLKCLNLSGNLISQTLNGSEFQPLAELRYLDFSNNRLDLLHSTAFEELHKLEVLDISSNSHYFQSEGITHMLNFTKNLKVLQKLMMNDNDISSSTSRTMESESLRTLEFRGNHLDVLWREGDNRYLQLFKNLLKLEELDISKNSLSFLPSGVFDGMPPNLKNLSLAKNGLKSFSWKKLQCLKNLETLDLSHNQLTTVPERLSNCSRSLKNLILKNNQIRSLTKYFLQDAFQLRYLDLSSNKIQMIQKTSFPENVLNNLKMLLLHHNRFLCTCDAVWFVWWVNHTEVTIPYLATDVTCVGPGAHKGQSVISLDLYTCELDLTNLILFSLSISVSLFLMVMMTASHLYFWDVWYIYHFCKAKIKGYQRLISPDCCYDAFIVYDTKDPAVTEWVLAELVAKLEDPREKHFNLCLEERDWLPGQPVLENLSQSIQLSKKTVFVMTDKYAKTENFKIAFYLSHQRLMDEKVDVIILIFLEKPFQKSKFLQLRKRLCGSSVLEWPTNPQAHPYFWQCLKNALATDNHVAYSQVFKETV

`Cc1cn2cc(-c3ccc(N4CCC(N)CC4)nc3C(C)C)cc(C)c2n1` [Example 4, 1-[5-(2,8-dimethylimidazo[1,2-a]pyridin-6-yl)-6-isopropyl-2-pyridyl]piperidin-4-amine]: on human TLR7, the IC50 was 8.9 nM. Moreover, in series [1], the “Membrane Retention” value was found to be 17.52%; the Papp at 4 h turned out to be 1.2 ×10⁻⁶ cm/s; the PAMPA category result was “medium & high (“medium & high” (Pe>=0.2; or Pe<0.2 and membrane retention>=20%))”.

As for `COc1nc(N2CCC(N3CCNCC3)CC2)ccc1-c1cc(C)c2nccn2c1` [Example 25, 6-[2-methoxy-6-(4-piperazin-1-yl-1-piperidyl)-3-pyridyl]-8-methyl-imidazo[1,2-a]pyridine], the IC50 on human TLR7 worked out at 6.9 nM.

With `Cc1cc(-c2cc(C)c3nccn3c2)cnc1N1CCC(N2CCN(C)CC2)CC1` [Example 9, 8-methyl-6-[5-methyl-6-[4-(4-methylpiperazin-1-yl)-1-piperidyl]-3-pyridyl]imidazo[1,2-a]pyridine], the IC50 at human TLR7 came to 13.2 nM. Moreover, in series [1], the “Membrane Retention” value was found to be 49%; the Papp at 4 h was determined as 0.88 ×10⁻⁶ cm/s; the PAMPA category result was “medium & high (“medium & high” (Pe>=0.2; or Pe<0.2 and membrane retention>=20%))”.

As to `CCc1nc(N2CCC(N3C[C@@H](N)[C@H](OC)C3)CC2)ccc1-c1cc(C)c2nccn2c1` [Example 15, (3R,4R)-1-[1-[6-ethyl-5-(8-methylimidazo[1,2-a]pyridin-6-yl)-2-pyridyl]-4-piperidyl]-4-methoxy-pyrrolidin-3-amine], the IC50 on human TLR7 came to 2.7 nM.

On to `CCc1cc(-c2cc(C)c3nccn3c2)cnc1N1CCC2(CCNCC2)CC1` [Example 22, 3-[3-ethyl-5-(8-methylimidazo[1,2-a]pyridin-6-yl)-2-pyridyl]-3,9-diazaspiro[5.5]undecane], for which the IC50 on human TLR7 is 3.3 nM. In series [1], the “Membrane Retention” value was determined as 26.45%; the Papp at 4 h came out at 0.5 ×10⁻⁶ cm/s; the PAMPA category entry was “medium & high (“medium & high” (Pe>=0.2; or Pe<0.2 and membrane retention>=20%))”.

Regarding `Cc1c(-c2ccc(N3CCC(N4CCNCC4)CC3)nc2C(C)C)cn2ccnc2c1C` [Example 7, 6-[2-isopropyl-6-(4-piperazin-1-yl-1-piperidyl)-3-pyridyl]-7,8-dimethyl-imidazo[1,2-a]pyridine], the IC50 at human TLR7 was 22.7 nM. In series [1], the “Membrane Retention” value is listed as 20.4%; the Papp at 4 h was 1.2 ×10⁻⁶ cm/s; the PAMPA category entry was “medium & high (“medium & high” (Pe>=0.2; or Pe<0.2 and membrane retention>=20%))”.

For `Cc1cn2cc(-c3ccc(N4CCN5CCNCC5C4)nc3C(C)C)cc(C)c2n1` (stereo not shown) [Example 8, 2-[5-(2,8-dimethylimidazo[1,2-a]pyridin-6-yl)-6-isopropyl-2-pyridyl]-1,3,4,6,7,8,9,9a-octahydropyrazino[1,2-a]pyrazine], the IC50 at human TLR7 is 6.7 nM. For the same molecule, in series [1], the “Membrane Retention” value was 34.49%; the Papp at 4 h came out at 0.85 ×10⁻⁶ cm/s; the PAMPA category entry was “medium & high (“medium & high” (Pe>=0.2; or Pe<0.2 and membrane retention>=20%))”.

For `Cc1cn2cc(-c3ccc(N4CCC(N5CCNCC5)CC4)nc3C(F)F)cc(C)c2n1` [Example 11, 6-[2-(difluoromethyl)-6-(4-piperazin-1-yl-1-piperidyl)-3-pyridyl]-2,8-dimethyl-imidazo[1,2-a]pyridine], the IC50 on human TLR7 amounted to 16.3 nM. In series [1], the “Membrane Retention” value amounted to 9.47%; the Papp at 4 h was found to be 0.84 ×10⁻⁶ cm/s; the PAMPA category entry is “medium & high (“medium & high” (Pe>=0.2; or Pe<0.2 and membrane retention>=20%))”.

With `Cc1cn2cc(-c3ccc(N4CCC(N5CC(C)(N)C5)CC4)nc3C(F)F)cc(C)c2n1` [Example 12, 1-[1-[6-(difluoromethyl)-5-(2,8-dimethylimidazo[1,2-a]pyridin-6-yl)-2-pyridyl]-4-piperidyl]-3-methyl-azetidin-3-amine], the IC50 on human TLR7 stood at 16.3 nM. Also, in series [1], the “Membrane Retention” value is on record as 7.03%; the Papp at 4 h was 1 ×10⁻⁶ cm/s; the PAMPA category result was “medium & high (“medium & high” (Pe>=0.2; or Pe<0.2 and membrane retention>=20%))”.

Take `Cc1cn2cc(-c3ccc(N4CCC(N5CCNCC5)CC4)nc3C(C)C)cc(C)c2n1` [Example 3, 6-[2-isopropyl-6-(4-piperazin-1-yl-1-piperidyl)-3-pyridyl]-2,8-dimethyl-imidazo[1,2-a]pyridine]: the IC50 at human TLR7 came to 5.8 nM. In series [1], the “Membrane Retention” value was 20.3%; the Papp at 4 h was found to be 0.8 ×10⁻⁶ cm/s; the PAMPA category result was “medium & high (“medium & high” (Pe>=0.2; or Pe<0.2 and membrane retention>=20%))”.

Consider `CCc1nc(N2CCC(C)(N)CC2)ccc1-c1cc(C)c2nc(C)cn2c1` [Example 20, 1-[5-(2,8-dimethylimidazo[1,2-a]pyridin-6-yl)-6-ethyl-2-pyridyl]-4-methyl-piperidin-4-amine], for which the IC50 on human TLR7 came to 35.8 nM.

For the molecule `Cc1cc(-c2ccc(N3CCC(N4CCNCC4)CC3)nc2C(F)F)cn2ccnc12` [Example 10, 6-[2-(difluoromethyl)-6-(4-piperazin-1-yl-1-piperidyl)-3-pyridyl]-8-methyl-imidazo[1,2-a]pyridine], the IC50 at human TLR7 was 1.9 nM. For the same molecule, in series [1], the “Membrane Retention” value came to 17.7%; the Papp at 4 h worked out at 0.81 ×10⁻⁶ cm/s; the PAMPA category result is “medium & high (“medium & high” (Pe>=0.2; or Pe<0.2 and membrane retention>=20%))”.

As for `CCc1nc(N2CCC(N3CC4(CNCCO4)C3)CC2)ccc1-c1cc(C)c2nccn2c1` [Example 14, 2-[1-[6-ethyl-5-(8-methylimidazo[1,2-a]pyridin-6-yl)-2-pyridyl]-4-piperidyl]-5-oxa-2,8-diazaspiro[3.5]nonane], the IC50 at human TLR7 turned out to be 3.9 nM.

Regarding `CCc1nc(N2CCC(N3C[C@@H](N)[C@H](OC)C3)CC2)ccc1-c1cc(C)c2nc(C)cn2c1` [Example 17, (3R,4R)-1-[1-[5-(2,8-dimethylimidazo[1,2-a]pyridin-6-yl)-6-ethyl-2-pyridyl]-4-piperidyl]-4-methoxy-pyrrolidin-3-amine], the IC50 at human TLR7 was determined as 17.3 nM.

In the case of `CCc1nc(N2CCC(N3CCNCC3)CC2)ccc1-c1cc(C)c2nc(C)cn2c1` [Example 21, 6-[2-ethyl-6-(4-piperazin-1-yl-1-piperidyl)-3-pyridyl]-2,8-dimethyl-imidazo[1,2-a]pyridine], the IC50 at human TLR7 stood at 5.9 nM. In series [1], the “Membrane Retention” value was found to be 28%; the Papp at 4 h came to 0.73 ×10⁻⁶ cm/s; the PAMPA category entry was “medium & high (“medium & high” (Pe>=0.2; or Pe<0.2 and membrane retention>=20%))”.

For the molecule `Cc1cc(-c2ccc(N3CCC(N4CCNCC4)CC3)nc2C(C)C)cn2ccnc12` [Example 2, 6-[2-isopropyl-6-(4-piperazin-1-yl-1-piperidyl)-3-pyridyl]-8-methyl-imidazo[1,2-a]pyridine], the IC50 at human TLR7 turned out to be 1.6 nM. Also, in series [1], the “Membrane Retention” value worked out at 22.73%; the Papp at 4 h was 0.87 ×10⁻⁶ cm/s; the PAMPA category entry is “medium & high (“medium & high” (Pe>=0.2; or Pe<0.2 and membrane retention>=20%))”.
